Earlier results on 2 compounds are cited in patent US8173175B2, “Ethanolic and/or aqueous composition of an ammoniacal solution of alkaline metal salts of azide, mainly sodium and potassium” (priority 2005, dated 2012).

One data set deals with catalase. The conditions noted are these: grapevine buds (Nir and Lavee 1993); for H2CN2 according to the manufacturer.
The test system of a further data set is grapevine buds. The conditions noted are these: Nir and Lavee 1993.

In the case of `N#CN` [H2CN2, hydrogen cyanamide], the “inhibition of catalase activity” value in the data set on catalase is reported as “inhibition of the enzyme catalase”. Moreover, the “European Union toxicity classification” value (EU catalogue) is “toxic, harmful compound in contact with the skin and eyes and skin irritant”. Besides, the USEPA toxicity category result (United States Environmental Protection Agency classification) was “category I (acute toxic)”.

Regarding `Nc1ncn[nH]1` [1,4-triazolamine], the “inhibition of catalase activity” value in the data set on catalase is given as “able of inhibit the catalase activity”. Besides, in the data set with grapevine buds, the “effect on the budding” value is “does not have any effect on the budding”.
